According to ChEMBL document CHEMBL3352801, “Synthesis and lipid-lowering evaluation of 3-methyl-1H-purine-2,6-dione derivatives as potent and orally available anti-obesity agents” (Eur J Med Chem, 2014):
The source made the active and inactive calls. The calls are words filed in the database; no cut-off is given here.

Columns and labels:
3T3-L1 = experiment: Inhibition of triglyceride accumulation in mouse 3T3L1 cells at 10 uM after 24 hrs; assay type: functional
Mus musculus [1] = experiment: Antiobesity activity in diet-induced obese C57Bl/6 mouse assessed as reduction in HOMA-IR value compound dosed po for 4 weeks with high-fat diet; assay type: functional, organism-based
Mus musculus [2] = experiment: Antiobesity activity in diet-induced obese C57Bl/6 mouse assessed as reduction in LDL level compound dosed po for 4 weeks with high-fat diet; assay type: functional, organism-based
Mus musculus [3] = experiment: Antiobesity activity in diet-induced obese C57Bl/6 mouse assessed as reduction in lipid droplets in liver at 50 mg/kg/day, po for 4 weeks administered with high-fat diet by Oil Red O staining-based histological method; assay type: functional, organism-based
Mus musculus [4] = experiment: Antiobesity activity in diet-induced obese C57Bl/6 mouse assessed as reduction in FFA level compound dosed po for 4 weeks with high-fat diet; assay type: functional, organism-based
Mus musculus [5] = experiment: Antiobesity activity in diet-induced obese C57Bl/6 mouse assessed as increase in HDL level compound dosed po for 4 weeks with high-fat diet; assay type: functional, organism-based
Mus musculus [6] = experiment: Decrease in insulin resistance in diet-induced obese C57Bl/6 mouse assessed as induction of insulin secretion at 50 mg/kg/day, po for 4 weeks by insulin tolerance test; assay type: functional, organism-based
Mus musculus [7] = experiment: Antiobesity activity in diet-induced obese C57Bl/6 mouse assessed as reduction in triglyceride level compound dosed po for 4 weeks with high-fat diet; assay type: functional, organism-based
Mus musculus [8] = experiment: Decrease in insulin resistance in diet-induced obese C57Bl/6 mouse assessed as induction of insulin secretion at 20 mg/kg, po as single dose by insulin tolerance test; assay type: functional, organism-based; parameters: dose 20 mg/kg
Mus musculus [9] = experiment: Antiobesity activity in diet-induced obese C57Bl/6 mouse assessed as reduction in fat accumulation in liver at 50 mg/kg/day, po for 4 weeks administered with high-fat diet by Oil Red O staining-based histological method; assay type: functional, organism-based
Mus musculus [10] = experiment: Antiobesity activity in diet-induced obese C57Bl/6 mouse assessed as reduction in size of fat cells at 20 mg/kg/day, po for 4 weeks administered with high-fat diet by Oil Red O staining-based histological method; assay type: functional, organism-based
Mus musculus [11] = experiment: Increase in glucose tolerance in diet-induced obese C57Bl/6 mouse at 20 mg/kg, po as single dose by oral glucose tolerance test; assay type: functional, organism-based; parameters: dose 20 mg/kg
Mus musculus [12] = experiment: Antiobesity activity in diet-induced obese C57Bl/6 mouse assessed as reduction in fat accumulation in liver at 20 to 50 mg/kg/day, po for 4 weeks administered with high-fat diet by Oil Red O staining-based histological method; assay type: functional, organism-based
Mus musculus [13] = experiment: Antiobesity activity in diet-induced obese C57Bl/6 mouse assessed as change in insulin level compound dosed po for 4 weeks with high-fat diet; assay type: functional, organism-based
Mus musculus [14] = experiment: Increase in glucose tolerance in po dosed diet-induced obese C57Bl/6 mouse by oral glucose tolerance test; assay type: functional, organism-based
Mus musculus [15] = experiment: Antiobesity activity in diet-induced obese C57Bl/6 mouse assessed as reduction in fasting blood glucose compound dosed po for 4 weeks with high-fat diet; assay type: functional, organism-based
Mus musculus [16] = experiment: Antiobesity activity in diet-induced obese C57Bl/6 mouse assessed as normal liver morphology and histology at 50 mg/kg/day, po for 4 weeks administered with high-fat diet by Oil Red O staining-based histological method; assay type: functional, organism-based
Mus musculus [17] = experiment: Increase in glucose tolerance in diet-induced obese C57Bl/6 mouse at 20 mg/kg/day, po for 4 weeks by oral glucose tolerance test; assay type: functional, organism-based
Mus musculus [18] = experiment: Increase in glucose tolerance in diet-induced obese C57Bl/6 mouse at 50 mg/kg/day, po for 4 weeks by oral glucose tolerance test; assay type: functional, organism-based
Mus musculus [19] = experiment: Decrease in insulin resistance in diet-induced obese C57Bl/6 mouse assessed as induction of insulin secretion at 20 mg/kg/day, po for 4 weeks by insulin tolerance test; assay type: functional, organism-based
Mus musculus [20] = experiment: Antiobesity activity in diet-induced obese C57Bl/6 mouse assessed as alteration of adipose tissue morphology at 20 to 50 mg/kg/day, po for 4 weeks administered with high-fat diet by Oil Red O staining-based histological method; assay type: functional, organism-based
Mus musculus [21] = experiment: Decrease in insulin resistance in po dosed diet-induced obese C57Bl/6 mouse assessed as induction of insulin secretion by insulin tolerance test; assay type: functional, organism-based

For `CN(CCOc1ccc(-c2nc3c(c(=O)n(CC(=O)O)c(=O)n3C)n2CC(=O)O)cc1)c1ccccn1`, the inhibition (3T3-L1) was “Active”.

`C=CCn1c(-c2ccc(OCCN(C)c3ccccn3)cc2)nc2c1c(=O)n(Cc1ccc(OC)cc1)c(=O)n2C` was tested, and the inhibition (3T3-L1) was “inactive”.

For `COc1ccc(Cn2c(=O)c3[nH]c(-c4ccc(OCCN(C)c5ccccn5)cc4)nc3n(C)c2=O)cc1`, the inhibition (3T3-L1) was “inactive”.

With `CCn1c(-c2ccc(OCCN(C)c3ccccn3)cc2)nc2c1c(=O)n(Cc1ccccc1C#N)c(=O)n2C` the Activity (Mus musculus [1]) was “Dose-dependent effect”, the Activity (Mus musculus [2]) was “Dose-dependent effect” and the Activity (Mus musculus [3]) was “Active”. For the same molecule, the Activity (Mus musculus [4]) was “Dose-dependent effect”, the Activity (Mus musculus [5]) was “Dose-dependent effect” and the Activity (Mus musculus [6]) was “Active”. The Activity (Mus musculus [7]) was “Dose-dependent effect”, the Activity (Mus musculus [8]) was “Active” and the Activity (Mus musculus [9]) was “Active”. The Activity (Mus musculus [10]) was “Active”, the Activity (Mus musculus [11]) was “Active” and the Activity (Mus musculus [12]) was “Active”. The Activity (Mus musculus [13]) was “Dose-dependent effect”, the Activity (Mus musculus [14]) was “Dose-dependent effect” and the Activity (Mus musculus [15]) was “Dose-dependent effect”. For the same molecule, the Activity (Mus musculus [16]) was “Active”, the Activity (Mus musculus [17]) was “Active” and the Activity (Mus musculus [18]) was “Active”. The Activity (Mus musculus [19]) was “Active”, the Activity (Mus musculus [20]) was “Active” and the Activity (Mus musculus [21]) was “Dose-dependent effect”.

With `C=CCn1c(=O)c2c(nc(-c3ccc(OCCN(C)c4ccccn4)cc3)n2CC=C)n(C)c1=O` the inhibition (3T3-L1) was “inactive”.

With `CN(CCOc1ccc(-c2nc3c(c(=O)n(Cc4ccccc4C#N)c(=O)n3C)n2CCO)cc1)c1ccccn1` the inhibition (3T3-L1) was “Active”.

With `CN(CCOc1ccc(-c2nc3c([nH]2)c(=O)n(CCCC(=O)O)c(=O)n3C)cc1)c1ccccn1` the inhibition (3T3-L1) was “inactive”.

In the case of `C=CCn1c(-c2ccc(OCCN(C)c3ccccn3)cc2)nc2c1c(=O)n(Cc1ccc(F)cc1)c(=O)n2C`, the inhibition (3T3-L1) is reported as “inactive”.

For `CN(CCOc1ccc(-c2nc3c(c(=O)n(Cc4ccccc4C#N)c(=O)n3C)n2CCCC(=O)O)cc1)c1ccccn1`, the inhibition (3T3-L1) was “inactive”.

In the case of `CCCCn1c(-c2ccc(OCCN(C)c3ccccn3)cc2)nc2c1c(=O)n(Cc1ccccc1C#N)c(=O)n2C`, the inhibition (3T3-L1) is reported as “Active”.

For `CCOC(=O)CCCn1c(=O)c2c(nc(-c3ccc(OCCN(C)c4ccccn4)cc3)n2COC(=O)C(C)(C)C)n(C)c1=O`, the inhibition (3T3-L1) was “inactive”.

In the case of `CN(CCOc1ccc(-c2nc3c([nH]2)c(=O)n(CC(=O)O)c(=O)n3C)cc1)c1ccccn1`, the inhibition (3T3-L1) is reported as “inactive”.

For `CC(C)Cn1c(-c2ccc(OCCN(C)c3ccccn3)cc2)nc2c1c(=O)n(Cc1ccccc1C#N)c(=O)n2C`, the inhibition (3T3-L1) was “inactive”.

For `CN(CCOc1ccc(-c2nc3c(c(=O)n(Cc4ccccc4C#N)c(=O)n3C)n2CC(=O)O)cc1)c1ccccn1`, the inhibition (3T3-L1) was “inactive”.

In the case of `CCn1c(=O)c2c(nc(-c3ccc(OCCN(C)c4ccccn4)cc3)n2CC)n(C)c1=O`, the inhibition (3T3-L1) is reported as “inactive”.

`NC(=O)c1ncn([C@@H]2O[C@H](CO)[C@@H](O)[C@H]2O)c1N` [ACADESINE] gave an inhibition at 10 µM (3T3-L1; 3T3-L1, 24 h) of 51%.
